From publication PMC6591251, “Discovery of potent necroptosis inhibitors targeting RIPK1 kinase activity for the treatment of inflammatory disorder and cancer metastasis” (Cell Death & Disease, 2019)

Key:
Test in all cases: RBC kinase panel
Assay type in all cases: biochemical
Conditions in all cases: ATP 10 μM, Data1, Data2
YES/YES1 = biological target: T1, YES/YES1 (Homo sapiens, UniProt P07947)
T1 construct: purchased Reaction Biology Corporation
How it was run: (§1)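 Test compound was screened at a single concentration of 1 μM, in duplicate, across a panel of 369 human kinases. Every kinase reaction contained 10 μM ATP.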

PKCtheta = biological target: T2, PKCtheta (Homo sapiens, UniProt Q04759)
T2 construct: purchased Reaction Biology Corporation
How it was run: as §1

Aurora A = biological target: T3, Aurora A (Homo sapiens, UniProt O14965)
T3 construct: purchased Reaction Biology Corporation
How it was run: as §1

EPHA5 = biological target: T4, EPHA5 (Homo sapiens, UniProt P54756)
T4 construct: purchased Reaction Biology Corporation
How it was run: as §1

PDGFRa = biological target: T5, PDGFRa (Homo sapiens, UniProt P16234)
T5 construct: purchased Reaction Biology Corporation
T5 sequence (P16234 24-1089): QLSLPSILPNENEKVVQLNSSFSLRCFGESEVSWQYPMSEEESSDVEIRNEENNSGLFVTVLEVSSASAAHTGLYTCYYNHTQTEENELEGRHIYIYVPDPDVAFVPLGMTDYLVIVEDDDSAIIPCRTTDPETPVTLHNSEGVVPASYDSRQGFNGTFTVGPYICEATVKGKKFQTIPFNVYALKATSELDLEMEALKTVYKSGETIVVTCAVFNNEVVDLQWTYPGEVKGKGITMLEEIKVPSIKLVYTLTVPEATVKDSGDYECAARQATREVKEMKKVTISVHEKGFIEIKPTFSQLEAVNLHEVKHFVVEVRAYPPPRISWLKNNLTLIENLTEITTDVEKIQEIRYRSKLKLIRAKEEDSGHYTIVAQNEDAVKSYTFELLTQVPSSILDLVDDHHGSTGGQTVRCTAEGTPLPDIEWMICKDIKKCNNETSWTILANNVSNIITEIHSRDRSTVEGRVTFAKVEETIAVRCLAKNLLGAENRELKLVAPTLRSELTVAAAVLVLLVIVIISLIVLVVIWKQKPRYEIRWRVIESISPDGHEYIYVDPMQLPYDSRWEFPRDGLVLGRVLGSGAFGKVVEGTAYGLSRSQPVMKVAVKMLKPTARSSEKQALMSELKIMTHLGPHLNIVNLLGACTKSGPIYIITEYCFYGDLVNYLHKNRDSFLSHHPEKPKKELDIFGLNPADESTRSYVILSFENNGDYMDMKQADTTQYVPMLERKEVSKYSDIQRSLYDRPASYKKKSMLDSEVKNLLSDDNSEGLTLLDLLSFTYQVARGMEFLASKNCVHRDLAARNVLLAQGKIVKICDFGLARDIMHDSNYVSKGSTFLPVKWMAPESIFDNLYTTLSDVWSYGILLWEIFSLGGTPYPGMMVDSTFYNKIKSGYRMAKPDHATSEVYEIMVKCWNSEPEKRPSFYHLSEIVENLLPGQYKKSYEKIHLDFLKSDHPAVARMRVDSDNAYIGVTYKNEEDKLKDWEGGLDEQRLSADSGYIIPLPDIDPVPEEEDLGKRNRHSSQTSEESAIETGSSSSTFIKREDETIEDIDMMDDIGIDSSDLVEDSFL
How it was run: as §1

PLK2 = biological target: T6, PLK2 (Homo sapiens, UniProt Q9NYY3)
T6 construct: purchased Reaction Biology Corporation
T6 sequence (Q9NYY3 whole entry): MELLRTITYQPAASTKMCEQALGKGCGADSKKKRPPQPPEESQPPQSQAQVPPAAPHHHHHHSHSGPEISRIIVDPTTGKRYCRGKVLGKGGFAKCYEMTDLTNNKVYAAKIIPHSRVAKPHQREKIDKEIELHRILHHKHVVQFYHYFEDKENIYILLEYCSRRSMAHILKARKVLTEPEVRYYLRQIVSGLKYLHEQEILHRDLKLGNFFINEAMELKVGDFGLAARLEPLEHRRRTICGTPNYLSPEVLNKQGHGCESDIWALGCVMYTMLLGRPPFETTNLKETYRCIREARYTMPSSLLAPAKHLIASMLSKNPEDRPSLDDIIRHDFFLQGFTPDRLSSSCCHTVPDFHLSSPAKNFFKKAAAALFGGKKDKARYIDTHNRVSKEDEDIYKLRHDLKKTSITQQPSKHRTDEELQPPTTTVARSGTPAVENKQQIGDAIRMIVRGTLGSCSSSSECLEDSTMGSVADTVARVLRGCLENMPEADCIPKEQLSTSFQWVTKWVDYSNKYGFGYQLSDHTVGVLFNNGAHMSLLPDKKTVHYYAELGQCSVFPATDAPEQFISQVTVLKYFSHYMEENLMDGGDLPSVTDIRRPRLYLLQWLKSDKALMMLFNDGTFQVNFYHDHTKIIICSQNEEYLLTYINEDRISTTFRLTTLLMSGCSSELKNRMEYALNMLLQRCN
How it was run: as §1

EPHB3 = biological target: T7, EPHB3 (Homo sapiens, UniProt P54753)
T7 construct: purchased Reaction Biology Corporation
How it was run: as §1

CK1g3 = biological target: T8, CK1g3 (Homo sapiens, UniProt Q9Y6M4)
T8 construct: purchased Reaction Biology Corporation
How it was run: as §1

CK1g1 = biological target: T9, CK1g1 (Homo sapiens, UniProt Q9HCP0)
T9 construct: purchased Reaction Biology Corporation
How it was run: as §1

MSK1/RPS6KA5 = biological target: T10, MSK1/RPS6KA5 (Homo sapiens, UniProt O75582)
T10 construct: purchased Reaction Biology Corporation
How it was run: as §1

CLK2 = biological target: T11, CLK2 (Homo sapiens, UniProt P49760)
T11 construct: purchased Reaction Biology Corporation
How it was run: as §1

IRR/INSRR = biological target: T12, IRR/INSRR (Homo sapiens, UniProt P14616)
T12 construct: purchased Reaction Biology Corporation
How it was run: as §1

TNK1 = biological target: T13, TNK1 (Homo sapiens, UniProt Q13470)
T13 construct: purchased Reaction Biology Corporation
How it was run: as §1

WNK1 = biological target: T14, WNK1 (Homo sapiens, UniProt Q9H4A3)
T14 construct: purchased Reaction Biology Corporation
How it was run: as §1

PKN3/PRK3 = biological target: T15, PKN3/PRK3 (Homo sapiens, UniProt Q6P5Z2)
T15 construct: purchased Reaction Biology Corporation
How it was run: as §1

CAMK4 = biological target: T16, CAMK4 (Homo sapiens, UniProt Q16566)
T16 construct: purchased Reaction Biology Corporation
How it was run: as §1

CDK3/cyclin E = biological target: T17, CDK3/cyclin E (Homo sapiens, UniProt Q00526)
T17 construct: purchased Reaction Biology Corporation
T17 sequence (Q00526 whole entry): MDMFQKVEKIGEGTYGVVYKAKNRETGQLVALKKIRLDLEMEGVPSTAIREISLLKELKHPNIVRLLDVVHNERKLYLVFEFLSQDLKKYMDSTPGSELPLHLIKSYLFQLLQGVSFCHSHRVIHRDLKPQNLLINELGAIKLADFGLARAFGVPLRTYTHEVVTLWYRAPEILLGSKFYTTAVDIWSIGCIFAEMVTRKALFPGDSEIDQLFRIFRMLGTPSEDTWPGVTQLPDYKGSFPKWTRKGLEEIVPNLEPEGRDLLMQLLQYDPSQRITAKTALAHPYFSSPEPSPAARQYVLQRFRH
T17 sequence (P24864 whole entry partner): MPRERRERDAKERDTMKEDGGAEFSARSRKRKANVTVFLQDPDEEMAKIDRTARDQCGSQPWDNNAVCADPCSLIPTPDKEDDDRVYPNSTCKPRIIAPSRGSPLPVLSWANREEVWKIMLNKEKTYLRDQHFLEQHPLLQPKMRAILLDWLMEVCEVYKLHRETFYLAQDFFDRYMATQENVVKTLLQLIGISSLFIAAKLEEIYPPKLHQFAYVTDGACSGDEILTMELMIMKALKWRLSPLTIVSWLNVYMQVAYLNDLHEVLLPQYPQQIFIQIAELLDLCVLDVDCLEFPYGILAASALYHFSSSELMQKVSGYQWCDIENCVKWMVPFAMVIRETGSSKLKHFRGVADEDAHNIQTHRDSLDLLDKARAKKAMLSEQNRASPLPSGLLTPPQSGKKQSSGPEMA
How it was run: as §1

RSK1 = biological target: T18, RSK1 (Homo sapiens, UniProt Q15418)
T18 construct: purchased Reaction Biology Corporation
How it was run: as §1

DDR2 = biological target: T19, DDR2 (Homo sapiens, UniProt Q16832)
T19 construct: purchased Reaction Biology Corporation
How it was run: as §1

SLK/STK2 = biological target: T20, SLK/STK2 (Homo sapiens, UniProt Q9H2G2)
T20 construct: purchased Reaction Biology Corporation
How it was run: as §1

DCAMKL2 = biological target: T21, DCAMKL2 (Homo sapiens, UniProt Q8N568)
T21 construct: purchased Reaction Biology Corporation
How it was run: as §1

LIMK1 = biological target: T22, LIMK1 (Homo sapiens, UniProt P53667)
T22 construct: purchased Reaction Biology Corporation
How it was run: as §1

MEK5 = biological target: T23, MEK5 (Homo sapiens, UniProt Q13163)
T23 construct: purchased Reaction Biology Corporation
How it was run: as §1

ALK = biological target: T24, ALK (Homo sapiens, UniProt Q9UM73)
T24 construct: purchased Reaction Biology Corporation
T24 sequence (Q9UM73 19-1620): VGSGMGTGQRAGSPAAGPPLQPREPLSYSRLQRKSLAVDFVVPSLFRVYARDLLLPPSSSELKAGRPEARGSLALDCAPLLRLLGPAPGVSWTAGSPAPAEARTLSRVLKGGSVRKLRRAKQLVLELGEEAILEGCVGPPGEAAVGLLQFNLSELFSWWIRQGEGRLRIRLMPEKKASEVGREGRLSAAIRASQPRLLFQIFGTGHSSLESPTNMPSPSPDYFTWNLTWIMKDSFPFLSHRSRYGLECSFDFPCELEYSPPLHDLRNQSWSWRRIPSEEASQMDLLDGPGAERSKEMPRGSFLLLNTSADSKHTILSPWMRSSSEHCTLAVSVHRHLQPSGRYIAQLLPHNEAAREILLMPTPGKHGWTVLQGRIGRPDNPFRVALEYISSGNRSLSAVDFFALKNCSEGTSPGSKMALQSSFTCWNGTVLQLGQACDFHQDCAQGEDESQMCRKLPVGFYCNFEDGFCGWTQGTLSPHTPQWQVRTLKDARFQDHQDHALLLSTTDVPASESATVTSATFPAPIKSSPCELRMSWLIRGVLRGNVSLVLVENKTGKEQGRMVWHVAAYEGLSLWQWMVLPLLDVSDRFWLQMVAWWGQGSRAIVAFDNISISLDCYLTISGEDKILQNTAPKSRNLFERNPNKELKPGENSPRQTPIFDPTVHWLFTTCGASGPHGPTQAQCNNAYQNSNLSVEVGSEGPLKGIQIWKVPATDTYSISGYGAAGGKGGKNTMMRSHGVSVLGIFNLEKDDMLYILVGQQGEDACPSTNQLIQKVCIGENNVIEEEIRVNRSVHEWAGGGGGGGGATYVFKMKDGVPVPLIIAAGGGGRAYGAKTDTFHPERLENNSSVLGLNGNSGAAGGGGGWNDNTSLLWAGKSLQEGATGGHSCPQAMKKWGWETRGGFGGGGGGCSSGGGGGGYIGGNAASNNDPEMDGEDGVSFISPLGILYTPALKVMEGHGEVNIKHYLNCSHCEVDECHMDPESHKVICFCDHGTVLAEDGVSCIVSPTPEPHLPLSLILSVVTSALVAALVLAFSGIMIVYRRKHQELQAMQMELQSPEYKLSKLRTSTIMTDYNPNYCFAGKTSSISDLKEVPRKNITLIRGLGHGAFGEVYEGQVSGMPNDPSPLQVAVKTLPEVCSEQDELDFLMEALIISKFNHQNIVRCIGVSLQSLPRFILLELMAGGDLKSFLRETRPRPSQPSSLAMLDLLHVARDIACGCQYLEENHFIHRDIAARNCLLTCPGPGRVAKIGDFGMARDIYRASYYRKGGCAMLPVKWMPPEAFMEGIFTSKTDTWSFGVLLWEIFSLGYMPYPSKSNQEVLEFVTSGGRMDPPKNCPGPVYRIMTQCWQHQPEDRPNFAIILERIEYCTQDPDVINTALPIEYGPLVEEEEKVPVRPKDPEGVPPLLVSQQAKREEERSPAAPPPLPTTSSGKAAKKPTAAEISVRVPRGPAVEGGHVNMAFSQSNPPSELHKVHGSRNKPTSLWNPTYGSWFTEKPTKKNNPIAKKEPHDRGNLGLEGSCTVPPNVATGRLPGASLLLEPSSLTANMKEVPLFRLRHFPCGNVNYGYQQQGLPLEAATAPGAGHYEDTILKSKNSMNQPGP
How it was run: as §1

EPHA1 = biological target: T25, EPHA1 (Homo sapiens, UniProt P21709)
T25 construct: purchased Reaction Biology Corporation
T25 sequence (P21709 26-976): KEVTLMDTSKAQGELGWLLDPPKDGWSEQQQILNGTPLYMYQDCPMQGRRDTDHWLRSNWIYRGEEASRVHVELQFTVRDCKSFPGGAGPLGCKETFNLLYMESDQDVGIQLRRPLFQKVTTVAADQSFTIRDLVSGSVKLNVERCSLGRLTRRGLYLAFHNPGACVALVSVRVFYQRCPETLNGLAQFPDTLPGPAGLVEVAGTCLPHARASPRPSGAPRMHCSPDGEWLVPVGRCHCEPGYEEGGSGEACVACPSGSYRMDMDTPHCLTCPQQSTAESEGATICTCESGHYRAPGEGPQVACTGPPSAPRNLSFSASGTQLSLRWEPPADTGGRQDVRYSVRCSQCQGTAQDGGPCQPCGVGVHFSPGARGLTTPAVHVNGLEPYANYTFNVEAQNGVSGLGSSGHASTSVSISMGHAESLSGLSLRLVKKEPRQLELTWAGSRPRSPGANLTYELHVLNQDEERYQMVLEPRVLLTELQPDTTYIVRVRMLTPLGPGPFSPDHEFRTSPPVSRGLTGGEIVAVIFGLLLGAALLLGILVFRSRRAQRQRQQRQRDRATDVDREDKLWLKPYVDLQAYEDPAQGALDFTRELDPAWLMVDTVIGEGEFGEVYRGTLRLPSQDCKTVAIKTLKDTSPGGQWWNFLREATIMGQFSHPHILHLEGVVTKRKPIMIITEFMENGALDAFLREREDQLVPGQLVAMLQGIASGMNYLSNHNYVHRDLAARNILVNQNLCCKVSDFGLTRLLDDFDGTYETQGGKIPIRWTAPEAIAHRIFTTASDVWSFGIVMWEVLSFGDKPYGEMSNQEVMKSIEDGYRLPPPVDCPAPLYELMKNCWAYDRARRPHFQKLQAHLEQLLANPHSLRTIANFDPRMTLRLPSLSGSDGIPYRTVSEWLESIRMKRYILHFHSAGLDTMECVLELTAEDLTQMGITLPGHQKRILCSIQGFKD
How it was run: as §1

CK1epsilon = biological target: T26, CK1epsilon (Homo sapiens, UniProt P49674)
T26 construct: purchased Reaction Biology Corporation
How it was run: as §1

MUSK = biological target: T27, MUSK (Homo sapiens, UniProt O15146)
T27 construct: purchased Reaction Biology Corporation
How it was run: as §1

LYN = biological target: T28, LYN (Homo sapiens, UniProt P07948)
T28 construct: purchased Reaction Biology Corporation
How it was run: as §1

GRK5 = biological target: T29, GRK5 (Homo sapiens, UniProt P34947)
T29 construct: purchased Reaction Biology Corporation
How it was run: as §1

PAK4 = biological target: T30, PAK4 (Homo sapiens, UniProt O96013)
T30 construct: purchased Reaction Biology Corporation
How it was run: as §1

TYRO3/SKY = biological target: T31, TYRO3/SKY (Homo sapiens, UniProt Q06418)
T31 construct: purchased Reaction Biology Corporation
How it was run: as §1

CDK16/cyclin Y (PCTAIRE) = biological target: T32, CDK16/cyclin Y (PCTAIRE) (Homo sapiens, UniProt Q00536)
T32 construct: purchased Reaction Biology Corporation
How it was run: as §1

KHS/MAP4K5 = biological target: T33, KHS/MAP4K5 (Homo sapiens, UniProt Q9Y4K4)
T33 construct: purchased Reaction Biology Corporation
How it was run: as §1

CC(=O)Nc1nc2ccc(-c3cnc(C)c(NC(=O)OC4CCCCC4)c3)cc2s1 [PK68, cyclohexyl (5-(2-acetamidobenzo[d]thiazol-6-yl)-2-methylpyridin-3-yl)carbamate]
Activity% (YES/YES1; 1 μM): 87.91%
activity at 1 µM (YES/YES1): 89.2%
Activity% (PKCtheta; 1 μM): 97.50%
activity at 1 µM (PKCtheta): 101%
Activity% (Aurora A; 1 μM): 95.24%
activity at 1 µM (Aurora A): 95.4%
Activity% (EPHA5; 1 μM): 100.43%
activity at 1 µM (EPHA5): 102%
Activity% (PDGFRa; 1 μM): 83.70%
activity at 1 µM (PDGFRa): 84.1%
Activity% (PLK2; 1 μM): 102.02%
activity at 1 µM (PLK2): 102%
Activity% (EPHB3; 1 μM): 98.23%
activity at 1 µM (EPHB3): 98.8%
Activity% (CK1g3; 1 μM): 87.02%
activity at 1 µM (CK1g3): 87.1%
Activity% (CK1g1; 1 μM): 89.50%
activity at 1 µM (CK1g1): 90.7%
Activity% (MSK1/RPS6KA5; 1 μM): 93.86%
activity at 1 µM (MSK1/RPS6KA5): 94%
Activity% (CLK2; 1 μM): 77.67%
activity at 1 µM (CLK2): 80.5%
Activity% (IRR/INSRR; 1 μM): 96.94%
activity at 1 µM (IRR/INSRR): 98%
Activity% (TNK1; 1 μM): 86.66%
activity at 1 µM (TNK1): 87.9%
Activity% (WNK1; 1 μM): 111.38%
activity at 1 µM (WNK1): 112%
Activity% (PKN3/PRK3; 1 μM): 92.58%
activity at 1 µM (PKN3/PRK3): 94.1%
Activity% (CAMK4; 1 μM): 84.49%
activity at 1 µM (CAMK4): 84.8%
Activity% (CDK3/cyclin E; 1 μM): 91.48%
activity at 1 µM (CDK3/cyclin E): 91.7%
Activity% (RSK1; 1 μM): 98.15%
activity at 1 µM (RSK1): 100%
Activity% (DDR2; 1 μM): 103.50%
activity at 1 µM (DDR2): 105%
Activity% (SLK/STK2; 1 μM): 91.29%
activity at 1 µM (SLK/STK2): 91.9%
Activity% (DCAMKL2; 1 μM): 99.58%
activity at 1 µM (DCAMKL2): 100%
Activity% (LIMK1; 1 μM): 63.37%
activity at 1 µM (LIMK1): 63.4%
Activity% (MEK5; 1 μM): 97.06%
activity at 1 µM (MEK5): 97.5%
Activity% (ALK; 1 μM): 94.03%
activity at 1 µM (ALK): 96.1%
Activity% (EPHA1; 1 μM): 100.48%
activity at 1 µM (EPHA1): 101%
Activity% (CK1epsilon; 1 μM): 74.35%
activity at 1 µM (CK1epsilon): 78.2%
Activity% (MUSK; 1 μM): 70.88%
activity at 1 µM (MUSK): 75.9%
Activity% (LYN; 1 μM): 92.90%
activity at 1 µM (LYN): 95.3%
Activity% (GRK5; 1 μM): 103.56%
activity at 1 µM (GRK5): 104%
Activity% (PAK4; 1 μM): 101.97%
activity at 1 µM (PAK4): 104%
Activity% (TYRO3/SKY; 1 μM): 97.95%
activity at 1 µM (TYRO3/SKY): 99.6%
Activity% (CDK16/cyclin Y (PCTAIRE); 1 μM): 96.14%
activity at 1 µM (CDK16/cyclin Y (PCTAIRE)): 99.2%
Activity% (KHS/MAP4K5; 1 μM): 75.34%
activity at 1 µM (KHS/MAP4K5): 76.5%
